Measurements from patent US20260209260A1, “VECTORIZED NHC IRIDIUM(III) COMPLEXES AND USE THEREOF IN PHOTODYNAMIC THERAPY AND/OR DIAGNOSTIC” (CENTRE NATIONAL DE LA RECHERCHE SCIENTIFIQUE, priority 2022, published 2026).
Where two headings read alike, the source gives them in different places.

Legend:
[1] = Emission lifetime measurement; type: physicochemical
Method: Fluorescence lifetime measurements were performed by an Edinburgh FLS920 spectrofluorimeter equipped with a TCC900 card for data acquisition in time-correlated single-photon counting experiments (0.5 ns time resolution) with a D2 lamp and an LDH—P-C-405 pulsed diode laser. The estimated experimental error is 2 nm on the band maximum (5% on the lifetime, 10% on the fluorescence quantum yield).
The emission lifetimes of biotin-vectorized complexes (I-a) to (I-l) range from 138 ns to 411 ns, among them, the lifetime of biotin-vectorized complexes (I-c), (I-e), (I-k) are 411, 224, and 322 ns respectively. The emission lifetimes of FTS-vectorized complexes (II-a) to (II-l) range from 167 ns to 486 ns, among them, the lifetime of FTS-vectorized complexes (II-c) and (II-k) are 319 and 486 ns respectively. The emission lifetimes of PSMA-vectorized complexes (III-a) to (III-l) are in the range of 159-649 ns, among them, the lifetime of complexes (III-a) and (III-k) were 248 and 649 ns, respectively. The emission lifetimes of Fc-vectorized complexes (IV-a) to (IV-l) are in the range of 178-228 ns.

T24 bladder cancer cells = experiment: Cell viability assay (MTT), dark and blue light; type: cell-based, Human
Method: (§1) Cells were grown in humidified incubators at 37° C. in 5% CO2. Murine MC3T3 osteoblast and NIH-3T3 fibroblast cells-used as non-tumor cell models-were cultured in a-MEM medium and DMEM medium supplemented with 10% fetal bovine serum (FBS) and 1% Penicillin/Streptomycin (P/S) antibiotics, respectively. Human T24 bladder, MGHU3 bladder, Scaber bladder, A549 lung, MCF7 breast, MiaPaCa2 pancreas cancer cells were cultured in DMEM medium supplemented with 10% FBS and 1% P/S antibiotics. […] Human Hela cervix and HepG2 liver cancer cells were cultured EMEM medium supplemented with 10% FBS and 1% P/S antibiotics.
(§2) MTT reagent (3-(4,5-dimethylthiazol-2-yl)-2,5-diphenyltetrazolium bromide) was used to determine cell death as originally described by Mosmann. Briefly, cells were seeded from 5,000 to 10,000 cells/well in 24-well plates (1 mL) depending on the cell type and allowed to attach overnight. The complexes were prepared in DMSO. The concentration of the complexes was calculated based on the elemental composition of the complexes determined by the elemental analyses. All cell viability experiments were carried out with a fixed concentration of 0.1% (v/v) DMSO. After 72 h of treatment, cells were incubated at 37° C. and 5% CO2 with 25 μL of MTT solution (5 mg/ml; Sigma-Aldrich) in 24-well plates for 3 to 4 h. After solubilization with 500 μL of DMSO, formazan was quantified spectrophotometrically with a microplate reader at 570 nm absorbance (ClarioSTAR, BMG LabTech). […] All the results were calculated from data obtained in at least three independent experiments performed in triplicate.
(§3) Two sets of experiments were conducted in parallel for each complex to be studied:
(§4) 1. The cells were incubated with the different complexes (in the dark) for 72 h.
(§5) 2. The cells were incubated for 8 h with the different complexes (in the dark), then irradiated for 10 min, followed by an incubation in the dark up to 72 h.

[2] = tested on: MC3T3 osteoblast cells (non-tumor); experiment: Cell viability assay (MTT), dark and blue light; type: cell-based, Murine; conditions: in the dark, 72 h; read-out: GI50 MC3T3 Dark
Method: as §1, §2, §3, §4, §5

[3] = tested on: NIH-3T3 fibroblast cells (non-tumor); experiment: Cell viability assay (MTT), dark and blue light; type: cell-based, Murine; conditions: for Photosensitizing index (PI): NIH-3T3, dark vs blue light
Method: as §1, §2, §3, §4, §5

[4] = Lipophilicity: octanol-water partition coefficient, shake-flask method
Method: The octanol-water partition coefficients (P) of all the complexes were determined using a shake-flask method^8. Water (100 mL, distilled after milli-Q purification) and n-octanol (100 mL, Sigma Aldrich, ACS spectrophotometric grade, ≥99%) were shaken together for 24 h to allow saturation of both phases. Stock solutions of the compounds ([…]) were prepared in the aqueous phase. Aliquots (2 mL) of each of these stock solutions were then added to an equal volume of the n-octanol phase. The resultant biphasic solution was mixed for 15 min and then centrifuged (3000 tr/min, 5 min) to separate the phases. The concentrations of the complex in the organic and aqueous phases were then determined using UV absorbance spectroscopy (260 nm). The blank is the water saturated with n-octanol. Log P was defined as logarithm of the ratio of the concentrations of the complex in the organic and aqueous phases (values reported are the means of at least three separated determinations).
The Log P values have been determined by a classical shake-flask method.

[5] = Luminescence emission spectra and quantum yield; type: physicochemical; conditions: for λem: CH2Cl2, room temperature, λexc 365 nm or 470 nm; for ΦP emission phosphorescence quantum yield: room temperature, reference POPOP in hexane or rhodamine B in ethanol
Method: Fluorescence and phosphorescence emission spectra were obtained with a HORIBA JOBIN YVON, fluromax-4 and spectrofluorometer.
Luminescence quantum yields were measured according to the method of Demas and Crosby, on solution samples at RT. The quantum yield is defined as: […]
Where ΦP is the quantum yield of the sample, ΦR is the know quantum yield of the reference standard. […].
The luminescence spectra of vectorized iridium(III) complexes were determined in CH2Cl2 at room temperature (Table 3).

[6] = UV/Vis absorption spectra; type: physicochemical; conditions: room temperature, air-saturated CH2Cl2 or CH2Cl2/MeOH (1:1), 50 μM; ε in brackets, sh = shoulder
Method: UV/Vis absorption spectra were recorded at RT on solutions contained in quartz cuvettes (optical pathlength 1 cm, Hellma®) with a PerkinElmer® UV/VIS/NIR spectrophotometer Lambda 950 and a PerkinElmer® detector UV/VIS/NIR Accessory 2D Detector Module.

[7] = tested on: PC-3 prostate cancer cells (PSMA-negative); experiment: Cell viability assay (MTT), dark and blue light; type: cell-based, Human; conditions: for GI50: read-out: GI50; for Photosensitizing index (PI): PC3, dark vs blue light
Method: Cells were grown in humidified incubators at 37° C. in 5% CO2. Murine MC3T3 osteoblast and NIH-3T3 fibroblast cells-used as non-tumor cell models-were cultured in a-MEM medium and DMEM medium supplemented with 10% fetal bovine serum (FBS) and 1% Penicillin/Streptomycin (P/S) antibiotics, respectively. Human T24 bladder, MGHU3 bladder, Scaber bladder, A549 lung, MCF7 breast, MiaPaCa2 pancreas cancer cells were cultured in DMEM medium supplemented with 10% FBS and 1% P/S antibiotics. Human ASPC-1 pancreas, PC-3 prostate, DU-145 prostate, C4-2B prostate and 22rV1 prostate cancer cells were cultured in RPMI medium supplemented with 10% FBS and 1% P/S antibiotics. Human Hela cervix and HepG2 liver cancer cells were cultured EMEM medium supplemented with 10% FBS and 1% P/S antibiotics.
as §2
Irradiation was conducted using an in-house device, a series of blue light LEDs selected according to the absorption spectra of the compounds at 458 nm wavelength with an emitted power of 9.6 Watts. The light fluence was measured at 458 nm with an optical power meter Thorlabs PM100A at different distances between the cell layer and the light source (5 and 10 cm).
as §3, §4, §5

SMILES	τ1 emission lifetime [1] [ns]	GI50 (T24 bladder cancer cells; 8 h in the dark, blue light 458 nm 10 min, then dark up to 72 h, read-out: GI50 T24 Blue) [µM]	Photosensitizing index (PI) T24 (T24 bladder cancer cells; dark vs blue light 458 nm)	GI50 [2] [µM]	GI50 ([3]; 8 h in the dark, blue light 458 nm 10 min, then dark up to 72 h, read-out: GI50 NIH-3T3 Blue) [µM]	Photosensitizing index (PI) NIH-3T3 ([3]; dark vs blue light 458 nm)	GI50 ([3]; in the dark, 72 h, read-out: GI50 NIH-3T3 Dark) [µM]	Log P [4]	λem [5]	ΦP emission phosphorescence quantum yield [5] [%]	λmax (nm) ε (M^−1 · cm^−1) [6]	GI50 ([7]; PC3, blue light) [µM]	Photosensitizing index (PI) [7]	GI50 ([7]; PC3, dark) [µM]	GI50 ([3]; NIH-3T3, blue light, read-out: GI50) [µM]	Photosensitizing index (PI) [3]	GI50 ([3]; NIH-3T3, dark, read-out: GI50) [µM]	SI (vs NIH-3T3) ([7]; PC3, blue light)	SI (vs NIH-3T3) ([7]; PC3, dark)
F[P-](F)(F)(F)(F)F.O=C(CCCC[C@@H]1SC[C@@H]2NC(=O)N[C@@H]21)NCCCn1cc[n+]2[c]1[Ir-3]13([c]4cccc5ccc6ccc[n+]1c6c45)([c]1cccc4ccc5ccc[n+]3c5c14)[n+]1ccccc1-2 [I-i]	210	35.4	1.4	50.2	> 100	>1	> 100	0.60 ± 0.06	522-567 nm	<0.1	320 (13840), 410 (3920) nm (M^−1 · cm^−1)	–	–	–	–	–	–	–	–
COC(=O)c1ccc2[n+](c1)[Ir-3]13([c]4ccccc4-2)([c]2ccccc2-c2ccc(C(=O)OC)c[n+]21)[c]1n(CCCNC(=O)[c-]2cccc2)cc[n+]1-c1cccc[n+]13.F[P-](F)(F)(F)(F)F.[Fe+2].c1cc[cH-]c1 [IV-e]	200	–	–	–	–	–	–	1.37 ± 0.05	528 nm	0.17	312 (sh) (27925), 363 (sh) (7290), 434 (6530) nm (M^−1 · cm^−1)	0.54	18.3	9.9	4.2	7.7	32.3	–	–
F[P-](F)(F)(F)(F)F.O=C(NCCCn1cc[n+]2[c]1[Ir-3]13([c]4ccccc4-c4ccc5ccccc5[n+]41)([c]1ccccc1-c1ccc4ccccc4[n+]13)[n+]1ccccc1-2)[c-]1cccc1.[Fe+2].c1cc[cH-]c1 [IV-g]	214	–	–	–	–	–	–	1.42 ± 0.06	579 nm	0.02	334 (17135), 436 (4150) nm (M^−1 · cm^−1)	–	5.8	1.5	–	3.3	11.8	13.7	7.9
F[P-](F)(F)(F)(F)F.O=C(NCCCn1cc[n+]2[c]1[Ir-3]13([c]4cc(F)cc(F)c4-c4cccc[n+]41)([c]1cc(F)cc(F)c1-c1cccc[n+]13)[n+]1ccccc1-2)[c-]1cccc1.[Fe+2].c1cc[cH-]c1 [IV-l]	191	–	–	–	–	–	–	1.14 ± 0.02	–	0.01	305 (sh) (21345), 356 (sh) (8645), 412 (3395) nm (M^−1 · cm^−1)	–	3.2	–	–	5.4	–	–	4.8
